From patent US20240299401A1, “NOVEL REDOX-BASED THERAPEUTIC APPROACH FOR TREATMENT OF CANCER” (THE PENN STATE RESEARCH FOUNDATION, priority 2020, published 2024)
Structures can show the parent of a compound that is named as a salt. Where two headings read alike, the source gives them in different places.

Experiments:
[1] = tested on: extracellular reduced thiols; assay: Extracellular thiols measurement (DTDP method); type: cell-based, human
Description: Cell culture media was collected at specified time points after incubation with the respective compounds as described in the respective figure legends and extracellular total thiols were measured using the DTDP method 19. The protocol was adjusted to 96-well plate format. […] Absorbance was measured at 324 nm in a spectrophotometer (PowerWave HT, BioTek, VT, USA). The assay mixture with fresh media was used as a blank.

[2] = tested on: 23 different human cell lines of multiple cancer origins; assay: Cytotoxicity across the cancer cell line panel (summary statements); type: cell-based
Description: (§1) Two different cytotoxicity/proliferation kit was used in this study i.e., WST-1 proliferation assay kit (Roche, Indianapolis, IN, USA; Cat #28620000) and Cell-titer Glo-luminescent cell viability assay (Promega, WI, USA; Cat #0000348721). Majority of the cell proliferation/cytotoxicity experiments were performed with WST-1 assay. Briefly, cells were seeded at the indicated density for 24 h in 96 well plate, media was replaced, and subsequently treated with the test compounds at different doses. […] Cell titer Glo-assay was additionally performed in certain cases to validate the results from WST-1 assay as outlined above following manufacturer's instructions and luminescence was measured using a FLx100 Luminometer (CLARIOSTAR®, Ortenbery, Germany). […] Other proliferation/cytotoxicity assays were also carried out i.e., Quant™-iT PicoGreen ds DNA assay kit (Thermo Scientific, Rockwood, TN, USA, P7589) following manufacturer's instructions, Trypan blue (Sigma, Ayrshire, UK, T8154) and acid phosphatase assay for validation of cytotoxicity/proliferation data from other assays.

A549 = assay: WST-1 cytotoxicity, A549; type: cell-based, human; settings: Homo sapiens
Description: as §1

HL60 = assay: WST-1 cytotoxicity and synergy analysis, HL60; type: cell-based, human; settings: Homo sapiens, HL-60
Description: as §1

NB4 = assay: WST-1 cytotoxicity, NB4; type: cell-based, human; settings: Homo sapiens, NB-4
Description: as §1

H661 = assay: WST-1 cytotoxicity, H661; type: cell-based, human; settings: Homo sapiens, NCI-H661, 24 h
Description: as §1

AML193 = assay: WST-1 cytotoxicity, AML193; type: cell-based; settings: Homo sapiens; AML193; alone; 24 h; read-out: Calculated IC50 values
Description: as §1

HeLa = assay: WST-1 cytotoxicity, HeLa; type: cell-based; settings: Homo sapiens, alone, 24 h, read-out: Calculated IC50 values
Description: as §1

U1906L = assay: WST-1 cytotoxicity, U1906L; type: cell-based; settings: Homo sapiens; U1906L; alone; 24 h; read-out: Calculated IC50 values
Description: as §1

THP-1 = assay: WST-1 cytotoxicity, THP-1; type: cell-based; settings: Homo sapiens; THP-1; alone; 24 h; read-out: Calculated IC50 values
Description: as §1

SNB-19 = assay: WST-1 cytotoxicity, SNB-19; type: cell-based; settings: Homo sapiens; SNB-19; alone; 24 h; read-out: Calculated IC50 values
Description: as §1

OV2008 = assay: WST-1 cytotoxicity, OV2008; type: cell-based; settings: Homo sapiens; OV2008; alone; 24 h; read-out: Calculated IC50 values
Description: as §1

LS174T = assay: WST-1 cytotoxicity, LS174T; type: cell-based; settings: Homo sapiens, alone, 24 h, read-out: Calculated IC50 values
Description: as §1

U1906E = assay: WST-1 cytotoxicity, U1906E; type: cell-based; settings: Homo sapiens; U1906E; alone; 24 h; read-out: Calculated IC50 values
Description: as §1

H1299 = assay: WST-1 cytotoxicity, H1299; type: cell-based, human; settings: Homo sapiens, NCI-H1299, H1299, alone
Description: as §1

Hep3B = assay: WST-1 cytotoxicity, Hep3B; type: cell-based; settings: Homo sapiens, alone, 24 h, read-out: Calculated IC50 values
Description: as §1

[3] = orally, 50-200 mg/day for 49 days; human; cited from earlier work
IGROV1 = assay: WST-1 cytotoxicity, IGROV1; type: cell-based, human; settings: IGROV1; alone; 24 h; dose up to 200 μM
Description: as §1

HUH7 = assay: WST-1 cytotoxicity, HUH7; type: cell-based; settings: Homo sapiens, Huh-7; HUH7; alone; 24 h; read-out: Calculated IC50 values
Description: as §1

PANC-1 = assay: WST-1 cytotoxicity, PANC-1; type: cell-based; settings: Homo sapiens; PANC-1; alone; 24 h; read-out: Calculated IC50 values
Description: as §1

[4] = tested on: Primary Human hepatocytes; assay: WST-1 cytotoxicity, primary human hepatocytes; settings: Hepatocyte, 24 h, read-out: Calculated IC50 values
SHSY5-SY = assay: WST-1 cytotoxicity, SHSY5-SY; type: cell-based; settings: Homo sapiens; SHSY5-SY; alone; 24 h; read-out: Calculated IC50 values
Description: as §1

[5] = Reported oral administration of selenocystine in humans; type: in vivo, human; settings: assuming 15% of 100 mg daily dose bioavailable, blood volume 5 L
A375 = assay: WST-1 cytotoxicity, A375; type: cell-based; settings: Homo sapiens, A-375; A375; alone; 24 h; read-out: Calculated IC50 values
Description: as §1

MCF-7 = assay: WST-1 cytotoxicity, MCF-7; type: cell-based, human; settings: Homo sapiens, MCF7, MCF-7, alone
Description: as §1

[6] = Toxicity in black mice (C57BL/6), 3 weeks; type: in vivo; settings: sodium selenite or selenocystine 3 mg/kg, alone or with diphenyl diselenide 50 and 100 mg/kg
Description: Black mice (C57BJ/6) mice were treated perorally every second day with either vehicle (canola oil) or diphenyl diselenide at two different dose levels (50 and 100 mg/kg body weight) for 3 weeks. Final body weight and weight of the major organs were measured at necropsy.
Black mice (C57BJ/6) mice were treated with vehicle (PBS i.p. and canola oil p.o.), sodium selenite (3 mg/kg body weight), selenocystine (3 mg/kg body weight), or in combinations with two different doses of diphenyl diselenide (50 and 100 mg/kg body weight) for 3 weeks. Final body weight and weight of the major organs were measured at necropsy.

HepG2 = assay: WST-1 cytotoxicity, HepG2; type: cell-based; settings: Homo sapiens; HepG2; alone; 24 h; read-out: Calculated IC50 values
[7] = tested on: Primary peripheral blood mononuclear cells; assay: WST-1 cytotoxicity, primary PBMCs; settings: Homo sapiens, PBMC, 24 h, read-out: Calculated IC50 values
8-MGBA = assay: WST-1 cytotoxicity, 8-MGBA; type: cell-based; settings: Homo sapiens, 8-MG-BA; 8-MGBA; alone; 24 h; read-out: Calculated IC50 values
Description: as §1

ATF4 = settings: HEK293 ATF4 reporter; tunicamycin 2.5 μM, other compounds 5.0 μM; 24 h
Description: The next day, media was replaced with respective compounds as described. Twenty-four hours post-treatment, media were aspirated and replaced with 1:1 ratio of PBS:Bright Glo luciferase reagent mix (Promega, Madison, WI, USA) according to manufacturer's protocol. Cells were incubated in the dark for 10 min at room temperature with gentle rocking and luciferase activity was measured using an FLx100 Luminometer (CLARIOSTAR®, Ortenbery, Germany). In parallel, the same setup was made, and the cells were used to monitor the proliferation/toxicity of individual exposed compounds. Luciferase signal is normalized to the to the proliferation/toxicity of the individual compounds. Bortezomib (50 nM, Sigma-Aldrich, St. Louis, MO, USA), a known agonist for ATF4, was used as a positive control.
The next day, old media was replaced with media containing the respective compounds as described in the figure legends. […] Cells were incubated in the dark for 10 min at room temperature with gentle rocking and luciferase activity was measured using an FLx100 Luminometer (CLARIOSTAR®, Ortenbery, Germany). […] In parallel, the same setup was made, and the cells were used to monitor the proliferation/toxicity of individual compounds. Luciferase signal was normalized to correct for the proliferation/toxicity of the individual compounds. […] For ATF4 reporter assay, Hek293T reporter cells 20 were cultured similarly as indicated for MCF7 cells, except for seeding density was set at 300 cells/mm2. All other experimental set up was similar.

[8] = A549 (Lung), compound alone, 24 h, '>' = dose approximation, read-out: IC50 values
[9] = HL60 (Leukemia), compound alone, 24 h, '>' = dose approximation, read-out: IC50 values
[10] = NB4 (Leukemia), compound alone, 24 h, '>' = dose approximation, read-out: IC50 values
[11] = H661 (Lung), compound alone, '>' = dose approximation, read-out: IC50 values
[12] = 24 h, read-out: Calculated IC50 values
[13] = read-out: Calculated IC50 values of selenocystine

CNC(=O)c1cc(Oc2ccc(NC(=O)Nc3ccc(Cl)c(C(F)(F)F)c3)cc2)ccn1 [sorafenib]
thiols efflux ([1]; A549 and H1299, 24 h, Erastin 5 μM, MSG 50 mM, Sorafenib 2.5 μM, trans-2,4-PDC 100 μM): no effect

O=C(O)c1cc(/N=N/c2ccc(S(=O)(=O)Nc3ccccn3)cc2)ccc1O [Sulfasalazine]
effect of co-treatment on cytotoxicity of sodium selenite and selenocystine ([2]; chemical inhibition of cystine transport): inhibition of cytotoxicity

CCOc1ccccc1-n1c(C(C)N2CCN(C(=O)COc3ccc(Cl)cc3)CC2)nc2ccccc2c1=O (stereo not drawn) [Erastin]
effect of co-treatment on cytotoxicity of sodium selenite and selenocystine [2]: inhibition of cytotoxicity

CCCCS(=N)(=O)CCC(N)C(=O)O (stereo not drawn) [BSO]
impact on the DPDS-induced increase in thiols efflux ([1]; MCF7, co-exposure, time-course): little or no impact

COc1cc(/C=C/C(=O)CC(=O)/C=C/c2ccc(O)c(OC)c2)ccc1O [Curcumin, reference compound]
IC50 (A549; [8]): > 20 µM | IC50 (HL60; [9]): > 20 µM | IC50 (NB4; [10]): > 20 µM | IC50 (H661; [11]): > 20 µM

COC(=O)/C=C/C(=O)OC [Dimethyl fumarate, reference compound]
IC50 (A549; [8]): > 40 µM | IC50 (HL60; [9]): > 40 µM | IC50 (NB4; [10]): > 40 µM | IC50 (H661; [11]): > 40 µM

N[C@@H](C[Se][Se]C[C@H](N)C(=O)O)C(=O)O [Selenocystine, selenocystine]
IC50 (AML193): 47 µM | IC50 (A549; A549, alone, 24 h, read-out: Calculated IC50 values): 8.7 µM | IC50 (A549; A549, alone, read-out: Calculated IC50 values of selenocystine): 8.7 µM | IC50 (HeLa): 5.78 µM | IC50 (HL60; HL60, alone, 24 h, read-out: Calculated IC50 values): 22.6 µM | IC50 (HL60; HL60, alone, read-out: Calculated IC50 values of selenocystine): 22.6 µM | IC50 (NB4; NB4, alone, 24 h, read-out: Calculated IC50 values): 44.1 µM | IC50 (NB4; NB4, alone, read-out: Calculated IC50 values of selenocystine): 44.1 µM | IC50 (U1906L): 17.8 µM | IC50 (THP-1): 0.92 µM | IC50 (SNB-19): 78.7 µM | IC50 (OV2008): 6.98 µM | IC50 (LS174T): 3.88 µM | IC50 (U1906E): 2.18 µM | IC50 (H1299; [12]): 22.7 µM | IC50 (H1299; [13]): 22.7 µM | IC50 (Hep3B): 74.7 µM | drug-induced toxic effects [3]: no signs of drug-induced toxic effects were reported | Calculated IC50 values (IGROV1): Non-toxic* | IC50 (HUH7): 92.7 µM | IC50 (PANC-1): 18.5 µM | IC50 [4]: 300 µM | IC50 (SHSY5-SY): 115 µM | maximum plasma concentration (conservative estimation) [5]: 17.8 µM | IC50 (H661; H661, alone, read-out: Calculated IC50 values): 55.7 µM | IC50 (A375): 8.6 µM | IC50 (MCF-7; [12]): 34.9 µM | IC50 (MCF-7; [13]): 34.9 µM | toxic effects (body and organ weight at necropsy) [6]: No demonstrated toxic effects could be observed | IC50 (HepG2): 12.4 µM | IC50 [7]: 35.4 µM | IC50 (8-MGBA): 49.7 µM

c1ccc([Te][Te]c2ccccc2)cc1 [diphenyl ditelluride]
ATF4 activity (ATF4): Increased ATF4 activity
